The values that follow come from US20130065227A1, “METHODS OF INCREASING MACROPINOCYTOSIS IN CANCER CELLS” (priority 2010, published 2013).

Common to all, as to assay type: cell-based
One series relates to DU145 cells. Nature of the series: Cell death / cytotoxicity.
A further series concerns most cancer cells tested. Nature of the series: Cell death on continuous exposure. Conditions: 10 μM AS1411. How it is done:
As described above, it is known that AS1411 can induce an unusual form of cell death in cancer cells. It was previously shown that G-rich oligonuclotides could induce cell death selectively in cancer cells compared to non-malignant cells, but it was noted that the morphology of the cells was inconsistent with death by apoptosis. The timing of cell death was also quite unusual, with continuous exposure (at 10 μM AS1411) for 7 days or more required to cause complete cell death for most cancer cells tested. […] However, cell death was also dose-dependent and occurred within hours in DU145 cells treated with 40 μM AS1411. Based on the various published reports, the cell death mechanism in U937 leukemia cells was investigated, and it was confirmed that cell death was not by apoptosis (FIG. 14 A-D). […] Although the same detailed studies of cell death have not been carried out in other cancer cell lines, it is consistently seen that AS1411-responsive cells die with a characteristic morphology (enlarged and vacuolated cells) without evidence of apoptosis.

In the next series the test system is DU145. Nature of the series: Uptake of AS1411 by macropinocytosis (MP). The following applies: DU145; Cancer, prostate. How it is done: FIG. 2 are graphs showing that AS1411 is internalized by different endocytic mechanisms in DU145 cancer cells and in non-malignant Hs27 cells. DU145 or Hs27 cells were plated 18 h before uptake analysis. Cells were pre-treated as described with inhibitor (gray histogram) or the corresponding vehicle control (black histogram) before addition of 10 μM FL-AS1411 and incubation at 37° C. for 2 h. After incubation, cells were harvested and analyzed by flow cytometry. Pre-treatment conditions were at 37° C. with: (Panel A) 5 μM Cytochalasin D for 30 min; (Panel B) 80 μM Dynasore for 30 min; or (Panel C) 3 mM amiloride for 1 h. All experiments were repeated at least three times and representative data are shown. Solid gray histograms represent background autofluorescence of unstained cells.
To analyze uptake of the oligodeoxynucleotides or dextran-10K (macropinocytic marker) by flow cytometry, 2×10^5 cells in fresh supplemented culture medium (2.5 ml) were plated into 6-well plates for 18 h. After complete adhesion, the cells were incubated with 5′-FAM tagged oligodeoxynucleotides or Alexa Fluor 488 tagged dextran-10K and incubated as indicated in the Description of the Drawings. Cells were washed once with ice-cold PBS, incubated with 1 μg/ml 7-amino-actinomycin D (7-AAD) for 5 min on ice or 1 μg/ml propidium iodide (PI), and washed twice with ice-cold PBS. […]

Consider “5′-d(GGTGGTGGTGGTTGTGGTGGTGGTGG) [AS1411]”, for which, in the series with DU145 cells (40 μM AS1411), the “timing of cell death” value was “within hours”. Moreover, in the series on DU145 cells (concentrations higher than 40 μM, early time point (2 h)), the “cytotoxicity at higher concentrations” value is recorded as “apparent cytotoxicity”. Moreover, the “continuous exposure required to cause complete cell death” value in the series on most cancer cells tested is at least 7 days. Further, the “Update by MP?” value with DU145 is on record as “Yes”.
